Values quoted from earlier work in patent publication US20070066602A1, “Process for Making Olanzapine Form I” (priority 2005, published 2007).

Experiments:
[1] = at pH 6.8; free base, crystalline solid

## Cc1cc2c(s1)Nc1ccccc1N=C2N1CCN(C)CC1 [olanzapine, Olanzapine]
[1]
  solubility: about 0.02 mg/ml
other
  solubility in water (qualitative): insoluble in water

## Cc1cc2c(s1)Nc1ccccc1N=C2N1CCN(C)CC1.O=C(O)c1ccccc1 [Olanzapine benzoate]
other
  solubility in water (qualitative): sparingly soluble in water
